These molecules were tested against T1, human CXCR3 (Homo sapiens, UniProt P49682) (assay: [35S]GTPγS exchange assay, CXCR3 receptor inhibition (hI-TAC-induced GTPγS-binding)). Conditions: -log IC50 (molar) inhibiting 50% of specific I-TAC-induced GTPγS-binding; membranes of human CXCR3-transfected CHO cells.
T1 construct: expressed in transfected cells; host or cells: CHO cells (membrane preparation)
T1 sequence (P49682 1-368): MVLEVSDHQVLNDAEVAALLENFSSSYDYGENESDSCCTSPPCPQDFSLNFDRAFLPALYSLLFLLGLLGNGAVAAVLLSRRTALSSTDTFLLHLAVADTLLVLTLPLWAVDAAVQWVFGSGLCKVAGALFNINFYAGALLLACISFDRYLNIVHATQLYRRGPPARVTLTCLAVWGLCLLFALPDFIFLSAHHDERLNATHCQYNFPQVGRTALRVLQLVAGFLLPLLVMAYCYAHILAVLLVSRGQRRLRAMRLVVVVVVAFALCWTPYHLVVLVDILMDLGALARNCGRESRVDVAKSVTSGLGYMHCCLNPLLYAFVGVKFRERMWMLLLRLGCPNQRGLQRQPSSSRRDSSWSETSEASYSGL
Assay type: biochemical
Description: CXCR3 Receptor Inhibition was Examined in a [^35S]GTPγS Exchange Assay
The exchange of guanosine 5′-[^35S]triphosphate was measured on membranes of human CXCR3-transfected CHO cells. [^35S]GTPγS exchange assays were performed in 96-well plates with 10 μg of membrane protein/well using basic flashplates (Perkin Elmer). Compounds were dissolved in DMSO and diluted with incubation buffer to yield required concentrations with 9% DMSO. Incubation buffer is composed of 20 mM HEPES, 100 mM NaCl, 3 μM GDP and 1 mM MgCl2, pH 7.4. […] Compound, membranes, hI-TAC (interferon-inducible T-cell alpha chemoattractant) and [^35S]GTPγS were added in a total volume of 200 μl. First, 20 μl of the appropriate compound dilution and 140 μl membranes from CXCR3-CHO cells were dissolved in membrane incubation buffer and pre-incubated for 30 minutes at 30° C. Then, 20 μl of hI-TAC dissolved at 30 nM in incubation buffer was added to the membranes and the mixture containing 1% of DMSO was incubated for another 30 minutes at 30° C. […] After 1 minute shaking and 30 minutes incubation at 30° C., flashplates were centrifuged for 5 minutes at 2500 rpm at room temperature. Flashplate bound radioactivity was determined by liquid scintillation counting. Basal GTPγS-binding was measured in 8 wells with membranes incubated in the same volume with 1% DMSO, without I-TAC. Maximal GTPγS-binding was measured in 8 wells with membranes incubated with 1% DMSO and 3 nM I-TAC. […] IC50 values were calculated using non-linear regression in Graphpad Prism.

| pIC50 | Compound |
| --- | --- |
| 6.2 | O=C1CCC(c2ccncc2)(C2CCN(Cc3ccc(Br)cc3)CC2)C(=O)N1 (stereo not shown) [Compound 2] |
| 6.3 | O=C1CCC(c2ccccc2)(C2CCN(Cc3ccc(Br)cc3)CC2)CN1 (stereo not shown) [Compound 5] |
| 6.2 | O=C1CCC(c2cccc(C(=O)O)c2)(C2CCN(Cc3ccc(Br)cc3)CC2)C(=O)N1 (stereo not shown) [Compound 23] |
| 6.3 | O=C1CCC(c2ccccn2)(C2CCN(Cc3ccc(Br)cc3)CC2)C(=O)N1 (stereo not shown) [Compound 30] |
| 5.5 | CNC(=O)c1cccc(C2(C3CCN(Cc4ccc(Br)cc4)CC3)CCC(=O)NC2=O)c1 (stereo not shown) [Compound 32] |
| 6.1 | O=C1CCC(c2cccc(C(=O)N3CCOCC3)c2)(C2CCN(Cc3ccc(Br)cc3)CC2)C(=O)N1 (stereo not shown) [Compound 37] |
| 6.0 | CSCN1C(=O)CCC(c2ccccc2)(C2CCN(Cc3ccc(Br)cc3)CC2)C1=O (stereo not shown) [Compound 38] |
| 6.0 | O=C1CCC(c2cccc(O)c2)(C2CCN(Cc3ccc(Br)cc3)CC2)C(=O)N1 (stereo not shown) [Compound 39] |

| Compound | pIC50 |
| --- | --- |
| NC(=O)c1cccc(C2(C3CCN(Cc4ccc(Br)cc4)CC3)CCC(=O)NC2=O)c1 (stereo not shown) [Compound 33] | 5.5 |

Same assay, conditions: -log IC50 (molar) inhibiting 50% of specific I-TAC-induced GTPγS-binding; membranes of human CXCR3-transfected CHO cells; read-out: pIC50 (converted)

| Compound | IC50 [nM] |
| --- | --- |
| O=C1CCC(c2ccc(F)cc2F)(C2CCN(Cc3ccc(Cl)c(F)c3)CC2)C(=O)N1 (racemic) [Compound 202] | 251 |
| O=C1CCC(c2ccccc2)(C2CCN(Cc3ccc(Br)cc3)CC2)C(=O)N1 (single isomer, unassigned) [Compound 14] | 631 |
| CC(c1ccc(Br)cc1)N1CCC(C2(c3ccccc3)CCC(=O)NC2=O)CC1 (stereo not shown) [Compound 1] | 398 |
| CC(c1ccc(Br)cc1)N1CCC(C2(c3ccc(F)cc3)CCC(=O)NC2=O)CC1 (stereo not shown) [Compound 3] | 200 |
| O=C1CCC(c2ccccc2)(N2CCN(Cc3ccc(Br)cc3)CC2)C(=O)N1 (stereo not shown) [Compound 7] | 251 |
| O=C1CCC(c2ccccc2)(C2CCN(Cc3ccc(Br)c(F)c3)CC2)C(=O)N1 (stereo not shown) [Compound 16a] | 316 |
| O=C1CCC(c2ccc(F)cc2)(C2CCN(Cc3ccc(Cl)c(F)c3)CC2)C(=O)N1 (stereo not shown) [Compound 26] | 200 |
| O=C1CCC(c2ccccc2)(N2CCN(Cc3ccc(Cl)c(F)c3)CC2)C(=O)N1 (stereo not shown) [Compound 27] | 2510 |
| O=C1CCC(c2ccccc2)(C2CCN(Cc3ccc4ccccc4c3)CC2)C(=O)N1 (stereo not shown) [Compound 28] | 3980 |
| COC(=O)c1ccc(CN2CCC(C3(c4ccccc4)CCC(=O)NC3=O)CC2)cc1 (stereo not shown) [Compound 36] | 1260 |
| COc1cc(F)ccc1CN1CCC(C2(c3ccccc3)CCC(=O)NC2=O)CC1 (stereo not shown) [Compound 46] | 3980 |
| O=C1CCC(c2ccccc2)(C2CCN(Cc3ccc(F)c(F)c3)CC2)C(=O)N1 (stereo not shown) [Compound 47] | 2000 |
| O=C1CCC(c2ccc(F)cc2)(C2CCN(Cc3ccc(F)c(F)c3)CC2)C(=O)N1 (stereo not shown) [Compound 49] | 3980 |
| O=C1CCC(c2ccccc2)(C2CCN(Cc3ccc(F)c(F)c3F)CC2)C(=O)N1 (stereo not shown) [Compound 50] | 1580 |
| Cc1cccc(C2(C3CCN(Cc4ccc(F)c(F)c4F)CC3)CCC(=O)NC2=O)c1 (stereo not shown) [Compound 52] | 1260 |
| COc1cccc(C2(C3CCN(Cc4ccc(F)c(F)c4F)CC3)CCC(=O)NC2=O)c1 (stereo not shown) [Compound 53] | 2000 |
| O=C1CCC(c2ccccc2)(C2CCN(Cc3ccc(F)c(Cl)c3)CC2)C(=O)N1 (stereo not shown) [Compound 55] | 3160 |
| Cc1cc(CN2CCC(C3(c4ccccc4)CCC(=O)NC3=O)CC2)ccc1F (stereo not shown) [Compound 59] | 1260 |
| Cc1cccc(C2(C3CCN(Cc4ccc(Cl)cc4)CC3)CCC(=O)NC2=O)c1 (stereo not shown) [Compound 64] | 2000 |
| COc1cccc(C2(C3CCN(Cc4ccc(Cl)cc4)CC3)CCC(=O)NC2=O)c1 (stereo not shown) [Compound 67] | 1000 |

The next lines start with the values.

| IC50 [nM] | Compound |
| --- | --- |
| 100 | O=C1CCC(c2ccc(F)cc2F)(C2CCN(Cc3ccc(Br)cc3)CC2)C(=O)N1 (racemic) [Compound 194] |
| 2000 | CC(c1ccc(Br)cc1)N1CCC(C2(c3ccccc3)CCC(=O)NC2=O)CC1 (single isomer, unassigned) [Compound 17] |
| 398 | CC(c1ccc(Br)cc1)N1CCC(C2(c3ccccc3)CCC(=O)NC2=O)CC1 (single isomer, unassigned) [Compound 18] |
| 63.1 | O=C1CCC(c2ccc(F)cc2F)(C2CCN(Cc3ccc(Br)cc3)CC2)C(=O)N1 (single isomer, unassigned) [Compound 166] |
| 794 | O=C1CCC(c2cccnc2)(C2CCN(Cc3ccc(Cl)cc3)CC2)C(=O)N1 (stereo not shown) [Compound 4] |
| 158 | COc1ccc(S(=O)(=O)O)cc1C1(C2CCN(Cc3ccc(Br)cc3)CC2)CCC(=O)NC1=O (stereo not shown) [Compound 6] |
| 794 | CC(c1ccc(Br)cc1)N1CCC(C2(c3ccccc3)CCCNC2=O)CC1 (stereo not shown) [Compound 11] |
| 398 | O=C1CCC(c2ccc(F)cc2)(C2CCN(Cc3ccc(Br)cc3F)CC2)CN1 (stereo not shown) [Compound 15] |
| 1260 | O=C1CCC(c2ccccc2)(C2CCN(Cc3ccc(Cl)cc3)CC2)C(=O)N1 (stereo not shown) [Compound 19] |
| 794 | O=C1CCC(c2ccccc2)(C2CCN(Cc3ccc(Cl)cc3)CC2)C(=O)N1 (stereo not shown) [Compound 20] |
| 251 | O=C1CCC(c2cccc(C(=O)O)c2)(C2CCN(Cc3ccc(Cl)c(F)c3)CC2)C(=O)N1 (stereo not shown) [Compound 22] |
| 1000 | CC(=O)Nc1ccccc1C1(C2CCN(Cc3ccc(Br)cc3)CC2)CCC(=O)NC1=O (stereo not shown) [Compound 24] |
| 794 | O=C1CCC(c2ccccn2)(C2CCN(Cc3ccc(Cl)c(F)c3)CC2)C(=O)N1 (stereo not shown) [Compound 29] |
| 200 | O=C1CCC(c2ccccc2)(C2CCN(Cc3ccc(Cl)c(F)c3)CC2)C(=O)N1 (stereo not shown) [Compound 31] |
| 1260 | CN1CCN(C(=O)c2cccc(C3(C4CCN(Cc5ccc(Br)cc5)CC4)CCC(=O)NC3=O)c2)CC1 (stereo not shown) [Compound 34] |
| 3160 | O=C1CCC(c2ccccc2)(C2CCN(Cc3ccc(F)cc3)CC2)C(=O)N1 (stereo not shown) [Compound 43] |
| 5010 | O=C1CCC(c2ccccc2)(C2CCN(Cc3ccc(F)cc3)CC2)C(=O)N1 (stereo not shown) [Compound 44] |
| 3980 | O=C1CCC(c2ccccc2)(C2CCN(Cc3ccc(F)cc3)CC2)C(=O)N1 (stereo not shown) [Compound 45] |
| 2510 | O=C1CCC(c2cccc(Cl)c2)(C2CCN(Cc3ccc(F)c(F)c3F)CC2)C(=O)N1 (stereo not shown) [Compound 51] |
| 1260 | O=C1CCC(c2ccc(F)cc2)(C2CCN(Cc3ccc(F)c(F)c3F)CC2)C(=O)N1 (stereo not shown) [Compound 54] |
| 5010 | O=C1CCC(c2ccc(F)cc2)(C2CCN(Cc3ccc(F)c(Cl)c3)CC2)C(=O)N1 (stereo not shown) [Compound 56] |
| 3980 | O=C1CCC(c2ccccc2)(C2CCN(Cc3ccc(F)c(Br)c3)CC2)C(=O)N1 (stereo not shown) [Compound 57] |
| 7940 | O=C1CCC(c2ccc(F)cc2)(C2CCN(Cc3ccc(F)c(Br)c3)CC2)C(=O)N1 (stereo not shown) [Compound 58] |
| 3160 | COc1cc(CN2CCC(C3(c4ccccc4)CCC(=O)NC3=O)CC2)ccc1F (stereo not shown) [Compound 60] |
| 1000 | O=C1CCC(c2ccccc2)(C2CCN(Cc3ccc(Cl)cc3)CC2)C(=O)N1 (stereo not shown) [Compound 61] |
| 794 | O=C1CCC(c2ccccc2)(C2CCN(Cc3ccc(Cl)cc3)CC2)C(=O)N1 (stereo not shown) [Compound 62] |
| 2000 | O=C1CCC(c2cccc(Cl)c2)(C2CCN(Cc3ccc(Cl)cc3)CC2)C(=O)N1 (stereo not shown) [Compound 63] |
| 794 | O=C1CCC(c2cccc(C(=O)O)c2)(C2CCN(Cc3ccc(Cl)cc3)CC2)C(=O)N1 (stereo not shown) [Compound 66] |
| 794 | O=C1CCC(c2ccc(F)cc2)(C2CCN(Cc3ccc(Cl)cc3)CC2)C(=O)N1 (stereo not shown) [Compound 68] |

Same assay, conditions: pIC50, -log IC50 (molar) inhibiting 50% of specific I-TAC-induced GTPγS-binding; membranes of human CXCR3-transfected CHO cells

| Compound | IC50 [nM] |
| --- | --- |
| O=C1CCC(c2ccccc2)(C2CCN(Cc3ccc(Br)cc3)CC2)C(=O)N1 (single isomer, unassigned) [Compound 13] | 316 |
| COc1cccc(C2(C3CCN(Cc4ccc(Br)cc4)CC3)CCC(=O)NC2=O)c1 (stereo not shown) [Compound 8] | 1580 |
| O=C1CCC(c2ccccc2)(C2CCN(Cc3ccc(Br)cc3)CC2)C(=O)N1 (stereo not shown) [Compound 10] | 316 |
| Nc1cccc(C2(C3CCN(Cc4ccc(Br)cc4)CC3)CCC(=O)NC2=O)c1 (stereo not shown) [Compound 35] | 316 |
| O=C1CCC(c2cccc(C(F)(F)F)c2)(C2CCN(Cc3ccc(Cl)cc3)CC2)C(=O)N1 (stereo not shown) [Compound 65] | 2510 |

Same assay, conditions: read-out: pIC50 (converted)

| IC50 [nM] | Compound |
| --- | --- |
| 2000 | Cc1cccc(C2(C3CCN(Cc4ccc(Br)cc4)CC3)CCC(=O)NC2=O)c1 (stereo not shown) [Compound 9] |
